Experiments:
[1] = tested on: human neutrophils; test: Phagocytosis of A. fumigatus conidia by isolated human neutrophils in normal or complement-depleted human sera; type: cell-based
Protocol: FIG. 8 depicts the initiation of classical complement activation at the bases of SAP-mediated phagocytosis. a) fluorescein-labelled AF conidia (1.6×10^6) phagocytosis by freshly isolated human neutrophils (2×10^5) in presence of sera depleted (−) from complement components and the effect of SAP opsonisation after 1 and 30 min AF conidia (2×10^8) opsonisation with 100 μg of human native SAP. 5% (left) or 10% (right) of human sera were used. Mean±SEM;*, P<0.05;**, P<0.01;***, P<0.005;***, P<0.0001 (Mann-Whitney test). b) FACS analysis of C1q deposition on AF conidia (1×10^7) in presence of plasma from wt or Apcs^−/− mice. Mean±SEM;*, P=0.05.
Human neutrophils were isolated from fresh whole blood of healthy volunteers through separation from erythrocytes by 3% dextran (GE Healthcare Life Sciences) density gradient sedimentation followed by Ficoll-Paque PLUS (GE Healthcare Life Sciences) and 62% Percoll® (Sigma-Aldrich) centrifugation as previously described (Moalli et al., 2010). Purity, determined by FACS analysis on forward scatter/side scatter parameters, was routinely >98%. 1×10^5 neutrophils were incubated for 1 and 30 min at 37° C. in 50 μl RPMI-1640 medium with 5 and 10% normal human serum (NS) or complement depleted sera and 1×10^5 FITC-labelled A. fumigatus conidia. Cells were transferred on ice and, after washing with PBS, pH 7.4, containing 10 mM EDTA and 0.2% bovine serum albumin (BSA; Sigma-Aldrich), FITC fluorescence in neutrophils (CD45-positive cells, neutrophils defined as FSC-A^high/SSC-A^high) was analysed by BD FACS Canto™ II Flow Cytometer (BD Biosciences). NS and sera depleted for C3, C1q, MBL, FB and FH were all obtained from CompTech (Complement Technology, Inc., USA).

[2] = tested on: complement activation on A. fumigatus conidia; test: Complement C3 deposition on A. fumigatus conidia and C5a formation in mouse plasma; type: biochemical; settings: Sap-opsonised conidia
Protocol: FIG. 6 depicts the effect of SAP on complement activation on A. fumigatus. a) FACS analysis of plasma C3 deposition on AF conidia (1×10^7) opsonized or not with Sap. b) plasma C5a levels after incubation with AF conidia shown in a. a) and b) n=10 mouse plasma/genotype. b) representative experiment out of three performed. a) and b) Mean±SEM.*, P<0.05;**, P<0.01;***, P<0.005;****, P<0.0001 (unpaired t-test).
Complement deposition on Aspergillus fumigatus. A volume of 10 μl PBS, pH 7.4, containing 1×10^7 conidia eventually opsonized with murine SAP (100 μg/ml per 1×10^9 conidia, 1 h at r.t.) was incubated (37° C.) in round bottom wells of Corning® 96-well polypropylene microplates for the indicated time points with 20 μl mouse plasma-heparin or 20 μl human NS and complement depleted sera (diluted in PBS at 10% and 30%). Complement deposition was blocked by addition of EDTA (10 mM final concentration) and by cooling in ice. After centrifugation (2000 rpm, 10 min at 4° C.), when indicated supernatant was collected for C5a measurement by ELISA. […] Conidia were then incubated (1 h, at 4° C.) with Alexa Fluor® 488 and 647-conjugated species-specific cross-adsorbed detection antibodies (2 μg/ml; ThermoFisher Scientific-Molecular Probes) and analysed by BD FACS Canto™ II Flow Cytometer (BD Biosciences) using forward and side scatter parameters to gate on at least 8,000 conidia. […] Results were expressed as frequency of conidia showing fluorescence compared with irrelevant controls and as geometric conidia MFI.
Proteins. […] Purity of the recombinant protein was assessed by SDS-PAGE followed by silver staining. […] SAP levels were measured in mouse plasma by ELISA (DuoSet ELISA; R&D Systems). Murine TNF-α, CCL2, MPO were measured by ELISA (DuoSet ELISA; R&D Systems). Murine C5a was measured either in plasma-heparin or in BALFs previously stored at −80° C. by DuoSet ELISA (R&D Systems) maintaining EDTA (10 mM) throughout the assay in order to stop the activation of the complement cascade.

human native SAP: Native SAP from human serum purchased by Merck-Millipore; Serum Amyloid P component, SEQ ID NO: 1
potentiation of phagocytosis ([1]; C1q-depleted serum): but not
potentiation of phagocytosis ([1]; C3-depleted serum): but not
potentiation of phagocytosis ([1]; MBL-depleted serum 5%): 55.5±17.0%
potentiation of phagocytosis ([1]; MBL-depleted serum 10%): 19.8±6.1%
potentiation of phagocytosis ([1]; normal human serum 5%): 37.4±10.3%
potentiation of phagocytosis ([1]; normal human serum 10%): 18.3±2.0%

B1: recombinant murine SAP: recombinant murine SAP from mouse myeloma cell line NSO (R&D Systems) (protein, UniProt P12246 21-224, looked up)
Serum amyloid P-component: QTDLKRKVFVFPRESETDHVKLIPHLEKPLQNFTLCFRTYSDLSRSQSLFSYSVKGRDNELLIYKEKVGEYSLYIGQSKVTVRGMEEYLSPVHLCTTWESSSGIVEFWVNGKPWVKKSLQREYTVKAPPSIVLGQEQDNYGGGFQRSQSFVGEFSDLYMWDYVLTPQDILFVYRDSPVNPNILNWQALNYEINGYVVIRPRVWD
in vitro C3 deposition on A. fumigatus conidia ([2]; Apcs−/− and wt plasma): rescued or increased
C5a formation ([2]; Apcs−/− plasma, 1, 5, 10, 20 min): rescued
C5a formation ([2]; wt plasma): increased

Reference: patent US20220054588A1, “USE OF SAP FOR THE TREATMENT OF EUROTIOMYCETES FUNGI INFECTIONS” (HUMANITAS MIRASOLE S.P.A., priority 2018, published 2022)
